Calls of active or inactive are those of the source. No cut-off for these calls is given here.
What was measured:
[1] = test system: A2780; assay: Induction of apoptosis in human A2780 cells assessed as necrotic cells at 0.4 uM incubated for 24 hrs by Annexin V-FITC/7-AAD staining based flow cytometry (reference value: 1 %); type: functional
[2] = test system: SK-OV-3; assay: Induction of apoptosis in human SK-OV-3 cells assessed as necrotic cells at 0.8 uM incubated for 24 hrs by Annexin V-FITC/7-AAD staining based flow cytometry (reference value: 0.6 %); type: functional
[3] = molecular target: Signal transducer and activator of transcription 3 (Homo sapiens) (UniProt P40763); assay: Inhibition of STAT3 in human SK-OV-3 cells assessed as downregulation of STAT3 phosphorylation at Ser727 residue in nuclei at 0.2 uM incubated for 24 hrs by Hoechst33342 staining based immunofluorescence assay; type: cell-based
Signal transducer and activator of transcription 3 (Homo sapiens), sequence (P40763 whole entry): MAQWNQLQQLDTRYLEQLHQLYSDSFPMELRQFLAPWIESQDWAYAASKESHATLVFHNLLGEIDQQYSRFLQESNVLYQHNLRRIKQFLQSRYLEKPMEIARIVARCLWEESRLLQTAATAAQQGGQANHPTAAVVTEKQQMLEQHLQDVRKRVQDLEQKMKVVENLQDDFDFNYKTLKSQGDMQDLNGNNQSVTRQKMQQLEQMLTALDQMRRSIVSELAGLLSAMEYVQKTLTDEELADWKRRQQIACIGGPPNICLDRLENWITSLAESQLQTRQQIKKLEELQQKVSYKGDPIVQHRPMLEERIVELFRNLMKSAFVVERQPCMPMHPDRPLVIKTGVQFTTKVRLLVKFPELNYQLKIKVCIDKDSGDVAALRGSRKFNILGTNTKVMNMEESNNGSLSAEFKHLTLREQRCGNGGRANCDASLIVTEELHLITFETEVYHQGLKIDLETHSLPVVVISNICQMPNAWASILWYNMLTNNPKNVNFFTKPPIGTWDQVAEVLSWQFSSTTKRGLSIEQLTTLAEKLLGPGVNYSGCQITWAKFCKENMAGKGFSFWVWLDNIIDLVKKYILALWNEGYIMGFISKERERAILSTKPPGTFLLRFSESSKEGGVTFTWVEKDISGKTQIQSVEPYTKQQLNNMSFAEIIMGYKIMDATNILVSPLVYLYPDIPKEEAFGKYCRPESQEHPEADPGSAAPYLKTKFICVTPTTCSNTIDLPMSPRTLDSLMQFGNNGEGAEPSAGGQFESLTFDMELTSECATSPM

[4] = test system: A2780; assay: Induction of apoptosis in human A2780 cells assessed as early apoptotic cells at 0.8 uM incubated for 24 hrs by Annexin V-FITC/7-AAD staining based flow cytometry (reference value: 1.9 %); type: functional
[5] = test system: SK-OV-3; assay: Induction of apoptosis in human SK-OV-3 cells assessed as increase in caspase-3 activity at 0.4 uM incubated for 24 hrs by flow cytometry (reference value: 4.6 %); type: functional
[6] = test system: A2780; assay: Induction of apoptosis in human A2780 cells assessed as necrotic cells at 0.2 uM incubated for 24 hrs by Annexin V-FITC/7-AAD staining based flow cytometry (reference value: 1 %); type: functional
[7] = test system: SK-OV-3; assay: Induction of apoptosis in human SK-OV-3 cells assessed as increase in caspase-3 activity at 0.2 uM incubated for 24 hrs by flow cytometry (reference value: 4.6 %); type: functional
[8] = test system: SK-OV-3; assay: Induction of apoptosis in human SK-OV-3 cells assessed as viable cells at 0.4 uM incubated for 24 hrs by Annexin V-FITC/7-AAD staining based flow cytometry (reference value: 94.6 %); type: functional; details: read-out: Activity
[9] = test system: A2780; assay: Induction of apoptosis in human A2780 cells assessed as late apoptotic cells at 0.2 uM incubated for 24 hrs by Annexin V-FITC/7-AAD staining based flow cytometry (reference value: 2.1 %); type: functional
[10] = test system: SK-OV-3; assay: Induction of cell cycle arrest in human SK-OV-3 cells assessed as reduction of CDK2 expression at 0.2 uM incubated for 24 hrs by flow cytometry (reference value: 94.4 %); type: functional; parameters: scale not given: the % may be the effect or the level left
[11] = test system: SK-OV-3; assay: Induction of apoptosis in human SK-OV-3 cells assessed as increase in caspase-8 activity at 0.2 uM incubated for 24 hrs by flow cytometry (reference value: 2.5 %); type: functional
[12] = test system: Mitochondrial membrane; assay: Induction of mitochondrial membrane potential loss in human A2780 cells at 0.4 uM incubated for 24 hrs by JC-1 staining based flow cytometry (reference value: 81 %)
[13] = test system: A2780; assay: Induction of apoptosis in human A2780 cells assessed as increase in caspase-3 activity at 0.8 uM incubated for 24 hrs by flow cytometry (reference value: 1.5 %); type: functional
[14] = test system: A2780; assay: Induction of apoptosis in human A2780 cells assessed as increase in caspase-3 activity at 0.4 uM incubated for 24 hrs by flow cytometry (reference value: 1.5 %); type: functional
[15] = Selectivity index, ratio of IC50 for cytotoxicity against human IOSE80 cells to IC50 for cytotoxicity against human SK-OV-3 cells
[16] = molecular target: Signal transducer and activator of transcription 3 (Homo sapiens) (UniProt P40763); assay: Inhibition of STAT3 in human A2780 cells assessed as downregulation of cytoplasmic STAT3 phosphorylation at Tyr705 residue at 0.2 uM incubated for 24 hrs by Hoechst33342 staining based immunofluorescence assay; type: cell-based
[17] = Toxicity in BALB/c mouse xenografted with human SK-OV-3 cells assessed as pathological change in liver at 2 to 5 mg/kg,ip administrated for 21 consecutive days by hematoxylin and eosin staining based assay; type: organism-based; details: in vivo, dose 2-5 mg/kg
[18] = test system: A2780; assay: Antiproliferative activity against human A2780 cells assessed as decrease in ALDH positive cells at 0.2 uM incubated for 24 hrs by ALDEFLUOR staining based flow cytometry (reference value: 32.5 %); type: functional; parameters: scale not given: the % may be the effect or the level left
[19] = test system: SK-OV-3; assay: Inhibition of cell migration in human SK-OV-3 cells assessed as reduction in number of migrated cells at 0.1 to 0.4 uM incubated for 24 hrs by crystal violet staining based transwell assay; type: functional; details: dose 0.1-0.4 µM
[20] = test system: SK-OV-3; assay: Antitumor activity against human SK-OV-3 cells xenografted in BALB/c mouse assessed as appearance of loosely arranged cells in tumor tissue at 2 to 5 mg/kg,ip administrated for 21 consecutive days by hematoxylin and eosin staining based assay; type: functional, organism-based; details: dose 2-5 mg/kg
[21] = test system: SK-OV-3; assay: Induction of cell cycle arrest in human SK-OV-3 cells assessed as accumulation of cells at G0/G1 phase at 0.4 uM incubated for 24 hrs by BrdU staining based flow cytometry (reference value: 59.8 %); type: functional
[22] = molecular target: Signal transducer and activator of transcription 3 (Homo sapiens) (UniProt P40763); assay: Inhibition of STAT3 in human SK-OV-3 cells assessed as downregulation of total STAT3 expression incubated for 24 hrs by Western blotting analysis; type: cell-based
[23] = test system: SK-OV-3; assay: Induction of apoptosis in human SK-OV-3 cells assessed as necrotic cells at 0.4 uM incubated for 24 hrs by Annexin V-FITC/7-AAD staining based flow cytometry (reference value: 0.6 %); type: functional
[24] = test system: A2780; assay: Induction of apoptosis in human A2780 cells assessed as increase in caspase-8 activity at 0.4 uM incubated for 24 hrs by flow cytometry (reference value: 1.2 %); type: functional
[25] = test system: A2780; assay: Induction of cell cycle arrest in human A2780 cells assessed as accumulation of cells at S phase at 0.4 uM incubated for 24 hrs by BrdU staining based flow cytometry (reference value: 51.6 %); type: functional
[26] = test system: A2780; assay: Induction of cell cycle arrest in human A2780 cells assessed as accumulation of cells at G0/G1 phase at 0.4 uM incubated for 24 hrs by BrdU staining based flow cytometry (reference value: 42.4 %); type: functional
[27] = test system: Mitochondrial membrane; assay: Induction of mitochondrial membrane potential loss in human A2780 cells at 0.2 uM incubated for 24 hrs by JC-1 staining based flow cytometry (reference value: 81 %)
[28] = test system: SK-OV-3; assay: Induction of cell cycle arrest in human SK-OV-3 cells assessed as reduction of CDK4 expression at 0.4 uM incubated for 24 hrs by flow cytometry (reference value: 66.8 %); type: functional; parameters: scale not given: the % may be the effect or the level left
[29] = test system: SK-OV-3; assay: Induction of cell cycle arrest in human SK-OV-3 cells assessed as reduction of Cyclin D1 expression at 0.4 uM incubated for 24 hrs by flow cytometry (reference value: 93.8 %); type: functional; parameters: scale not given: the % may be the effect or the level left
[30] = test system: A2780; assay: Induction of apoptosis in human A2780 cells assessed as early apoptotic cells at 0.2 uM incubated for 24 hrs by Annexin V-FITC/7-AAD staining based flow cytometry (reference value: 1.9 %); type: functional
[31] = test system: SK-OV-3; assay: Induction of apoptosis in human SK-OV-3 cells assessed as necrotic cells at 0.2 uM incubated for 24 hrs by Annexin V-FITC/7-AAD staining based flow cytometry (reference value: 0.6 %); type: functional
[32] = test system: SK-OV-3; assay: Induction of apoptosis in human SK-OV-3 cells assessed as viable cells at 0.8 uM incubated for 24 hrs by Annexin V-FITC/7-AAD staining based flow cytometry (reference value: 94.6 %); type: functional; details: read-out: Activity

In the case of `CC1=C(O)C(=O)C=C2C1=CC=C1[C@@]2(C)CC[C@@]2(C)[C@@H]3C[C@](C)(C(=O)N4CCNCC4)CC[C@]3(C)CC[C@]12C`, the Activity [1] is reported as 2.3%, the Activity [2] is reported as 1.4% and the inhibition [3] is reported as “Active”. The Activity [4] was 1.7%, the Activity [5] was 12.6% and the Activity [6] was 1%. For the same compound, the Activity [7] was 6.8%, the viability at 0.4 µM [8] was 64.4% and the Activity [9] was 5.3%. It also gave an Activity [10] of 91.1%, an Activity [11] of 6.2% and an Activity [12] of 49.5%. The Activity [13] was 70.7%, the Activity [14] was 24.1% and the “Ratio IC50” value [15] was 4.81. For the same compound, the inhibition [16] was “Active; Showed Mild Inhibition Activity”, the Activity [17] was “Non-toxic” and the Activity [18] was 3.83%. The inhibition [19] was “Active”, the Activity [20] was “Active” and the Activity [21] was 49.2%. For the same compound, the inhibition [22] was “Dose-dependent-effect”, the Activity [23] was 0.9% and the Activity [24] was 9.8%. For the same compound, the Activity [25] was 25.2%, the Activity [26] was 64.7% and the Activity [27] was 53.2%. It also gave an Activity [28] of 70.6%, an Activity [29] of 68.2% and an Activity [30] of 4.4%. For the same compound, the Activity [31] was 0.7% and the viability at 0.8 µM [32] was 48%.

Source: ChEMBL document CHEMBL6083204, “Synthesis of a celastrol derivative as a cancer stem cell inhibitor through regulation of the STAT3 pathway for treatment of ovarian cancer” (RSC Med Chem, 2024)
